These results are taken from article PMC12326976 (Antimicrobial Agents and Chemotherapy, 2025).

Peptide text beside a SMILES is read from it.

Test [1] relates to H1N1 virus. The test is classed as cell-based, influenza H1N1 virus.
The subject of test [2] is H1N1 virus. Nature of the test: Plaque reduction assay, H1N1 in MDCK cells. Format: cell-based, influenza A/Hong Kong/415742/2009 (H1N1). The settings on record: H30 in 20% PBS compared to PBS, plaque assay, Fig. S1. The method, then:
The antiviral activity of peptides was measured by plaque reduction assay. Briefly, peptides were dissolved in PBS or 20% PBS. Peptides (0.2-25.0 µg mL^−1) were premixed with H1N1 virus at room temperature. After 30 min of incubation, the peptide-virus mixture was transferred to MDCK cells for infection at 37°C. At 1 hpi, infectious media were removed, and then 1% low melting agar was added to cells. Cells were fixed using 4% formalin at 2–3 dpi. […] (0.1%) was added to cells for cell staining to count viral plaques.

A further test has as its system rhinovirus A1. Format: cell-based.

For the molecule `CC(=O)N[C@H]1[C@H]([C@H](O)[C@H](O)CO)OC(C(=O)O)=C[C@@H]1N=C(N)N` [zanamivir, reference compound], the “H1N1 viral release, supernatant virus at 8 hpi” value in the test with H1N1 virus [1] is given as “significantly inhibited H1N1 viral release from cells”. Take `CC[C@H](C)[C@H](NC(=O)[C@H](C)NC(=O)CN)C(=O)N[C@@H](CS)C(=O)N[C@@H](Cc1c[nH]cn1)C(=O)N1CCC[C@H]1C(=O)N[C@H](C(=O)N[C@@H](Cc1ccccc1)C(=O)N[C@@H](CS)C(=O)N1CCC[C@H]1C(=O)N[C@@H](CCCNC(=N)N)C(=O)N[C@@H](CCCNC(=N)N)C(=O)N[C@@H](Cc1ccc(O)cc1)C(=O)N[C@@H](CCCCN)C(=O)N[C@@H](CCC(N)=O)C(=O)N[C@H](C(=O)NCC(=O)N[C@H](C(=O)N[C@@H](CS)C(=O)NCC(=O)N[C@@H](CC(C)C)C(=O)N1CCC[C@H]1C(=O)NCC(=O)N[C@H](C(=O)N[C@@H](CCCCN)C(=O)N[C@@H](CS)C(=O)N[C@@H](CS)C(=O)N[C@@H](CCCCN)C(=O)N[C@@H](CCCCN)C(=O)N1CCC[C@H]1C(=O)O)[C@@H](C)O)[C@@H](C)O)[C@@H](C)CC)C(C)C` [H30] (H-GAICHPVFCPRRYKQIGTCGLPGTKCCKKP-OH; N-terminus and C-terminus assumed): in the test with H1N1 virus [2], the “antiviral activity against H1N1 in low salt” value is “could show antiviral activity in the low salt condition of 20% phosphate-buffered saline”. Also, in the test on rhinovirus A1, the “antiviral activity against rhinovirus A1 in low salt” value is listed as “could show more effective antiviral activity in low salt conditions”.
